Results from patent US10626144B2, “Peptide derivatives and uses thereof” (Nosopharm, priority 2014, dated 2020).
Square brackets hold non-standard residues; d marks the D form. Peptide text beside a SMILES is read from it. * marks the point of attachment. Dab(3S-OH) = NC[C@H](O)[C@H](N)C(=O)O; ΔZArg = N=C(N)NCC/C=C(\N)C(=O)O; NMeK = CN[C@@H](CCCCN)C(=O)O; hLys = NCCCCC[C@H](N)C(=O)O; dOrn = NCCC[C@@H](N)C(=O)O; NH(CH2)4NH2 = NCCCCN*

Tests used:
Test in all cases: MIC, broth microdilution (CLSI), reference strain
Conditions in all cases: CAMHB
[1] = test system: Pseudomonas aeruginosa ATCC 27853
[2] = test system: Escherichia coli ATCC 25922
[3] = test system: Staphylococcus aureus ATCC 13709
[4] = test system: Acinetobacter baumannii ATCC 19606

Pa: MIC Pseudomonas aeruginosa ATCC 27853 [1] | Ec: MIC Escherichia coli ATCC 25922 [2] | Sa: MIC Staphylococcus aureus ATCC 13709 [3] | Ab: MIC Acinetobacter baumannii ATCC 19606 [4] | SMILES
− (>32 μg/mL) | − (>32 μg/mL) | + (≤32 μg/mL) | − (>32 μg/mL) | C[C@H](NC(=O)[C@@H](NC(=O)[C@@H](N)CCCCN)[C@@H](O)CN)C(=O)NCC(=O)N[C@H](CCCN)C(=O)N1CCC[C@H]1C(=O)N[C@@H](CCC(N)=O)C(=O)N[C@@H](CCCCN)C(=O)N/C(=C\CCNC(=N)N)C(=O)O [24.117] (H-K[Dab(3S-OH)]AG[dOrn]PQK[ΔZArg]-OH)
− (>32 μg/mL) | − (>32 μg/mL) | ++ (≤8 μg/mL) | − (>32 μg/mL) | C[C@H](NC(=O)[C@@H](NC(=O)[C@@H](N)CCCCN)[C@@H](O)CN)C(=O)NCC(=O)N[C@H](CCCN)C(=O)N1CCC[C@H]1C(=O)N[C@@H](CCC(=O)O)C(=O)N[C@@H](CCCCN)C(=O)N/C(=C\CCNC(=N)N)C(=O)N[C@@H](CCCCN)C(=O)NCCCCN [24.118] (H-K[Dab(3S-OH)]AG[dOrn]PEK[ΔZArg]K-{NH(CH2)4NH2})
− (>32 μg/mL) | + (≤32 μg/mL) | − (>32 μg/mL) | − (>32 μg/mL) | COC(=O)CC[C@H](NC(=O)[C@@H]1CCCN1C(=O)[C@@H](CCCN)NC(=O)CNC(=O)[C@H](C)NC(=O)[C@@H](NC(=O)[C@@H](N)CCCCN)[C@@H](O)CN)C(=O)N[C@@H](CCCCN)C(=O)N/C(=C\CCNC(=N)N)C(=O)O [24.120] (H-K[Dab(3S-OH)]AG[dOrn]PE(OMe)K[ΔZArg]-OH)

Further lines, the compound ahead of its results:

SMILES | Pa: MIC Pseudomonas aeruginosa ATCC 27853 [1] | Ec: MIC Escherichia coli ATCC 25922 [2] | Sa: MIC Staphylococcus aureus ATCC 13709 [3] | Ab: MIC Acinetobacter baumannii ATCC 19606 [4]
C[C@H](NC(=O)[C@@H](NC(=O)[C@@H](N)CCCCN)[C@@H](O)CN)C(=O)NCC(=O)N[C@H](CCCN)C(=O)N1CCC[C@H]1C(=O)N[C@@H](Cc1cnc[nH]1)C(=O)N[C@@H](CCCCCN)C(=O)N[C@H](CCCNC(=N)N)C(N)=O [24.121] (H-K[Dab(3S-OH)]AG[dOrn]PH[hLys][dR]-NH2) | − (>32 μg/mL) | − (>32 μg/mL) | ++ (≤8 μg/mL) | − (>32 μg/mL)
C[C@H](NC(=O)[C@@H](NC(=O)[C@@H](N)CCCCN)[C@@H](O)CN)C(=O)NCC(=O)N[C@H](CCCN)C(=O)N1CCC[C@H]1C(=O)N[C@@H](Cc1cnc[nH]1)C(=O)N[C@@H](CCCCN)C(=O)N[C@H](CCCNC(=N)N)C(=O)O [24.122] (H-K[Dab(3S-OH)]AG[dOrn]PHK[dR]-OH) | − (>32 μg/mL) | − (>32 μg/mL) | − (>32 μg/mL) | − (>32 μg/mL)
CC[C@H](C)[C@H](NC(=O)/C(=C/CCNC(=N)N)NC(=O)[C@H](CCCCN)NC(=O)[C@H](Cc1cnc[nH]1)NC(=O)[C@@H]1CCCN1C(=O)[C@@H](CCCN)NC(=O)CNC(=O)[C@H](C)NC(=O)[C@@H](NC(=O)[C@@H](N)CCCCN)[C@@H](O)CN)C(=O)O [24.123] (H-K[Dab(3S-OH)]AG[dOrn]PHK[ΔZArg]I-OH) | − (>32 μg/mL) | − (>32 μg/mL) | + (≤32 μg/mL) | − (>32 μg/mL)
CN[C@@H](CCCCN)C(=O)N[C@H](C(=O)N[C@@H](C)C(=O)NCC(=O)N[C@H](CCCN)C(=O)N1CCC[C@H]1C(=O)N[C@@H](Cc1cnc[nH]1)C(=O)N[C@@H](CCCCN)C(=O)N/C(=C\CCNC(=N)N)C(=O)O)[C@@H](O)CN [24.126] (H-[NMeK][Dab(3S-OH)]AG[dOrn]PHK[ΔZArg]-OH) | − (>32 μg/mL) | + (≤32 μg/mL) | + (≤32 μg/mL) | − (>32 μg/mL)
